Results as given in US20160235807A1, “AGONISTS OF GUANYLATE CYCLASE USEFUL FOR DOWNREGULATION OF PRO-INFLAMMATORY CYTOKINES” (SYNERGY PHARMACEUTICALS, INC., priority 2013, published 2016).
Bridge positions count the residues as written; N and C are the ends. Square brackets hold non-standard residues; d marks the D form. Ends that are not written are not given here.

Tests used:
[1] = test system: myeloperoxidase (MPO) activity in colon tissues; experiment: MPO activity in lysates from mid-colon tissues, DSS-induced colitis in BDF-1 mice; format: in vivo, mouse; settings: 5-ASA 100 mg/kg
Protocol: (§1) A total of 40 samples were chosen for analysis of MPO activity and Ki-67 labeling from the treatment groups that received SP-333, its vehicle control (0.1M phosphate buffer, pH 7) and the reference compound (5-ASA). A random number generator (www.random.org) was employed to select samples from these groups (7 from each of the SP-333-recipient groups and 6 from each of the vehicle and 5-ASA groups).
Myeloperoxidase activity in colonic tissue samples was performed according to the method described (Krawisc et al., 1984). Briefly, the rate of change in absorbance at 450 nm was recorded when 20 μl of tissue extract was incubated with […] of reaction buffer containing 0.26 mg/ml 0-dianisidine and 0.6 μl/ml H2O2. Each reaction was performed in triplicate. The rate of reaction was determined (initial slope) and normalized to protein concentration of sample.

[2] = test system: Ki-67 labeling of crypt epithelial cells; experiment: Ki-67 labeling in large bowel cross sections, DSS-induced colitis in BDF-1 mice; format: in vivo, mouse; settings: 5-ASA treated mice
From the text: as §1
Employing standard procedures, two non-serial sections from each animal, were de-waxed in xylene and rehydrated in graded alcohols to PBS (pH 7.4). Endogenous peroxidase was blocked by incubation in 0.3% […] for 30 min. Antigen retrieval was performed by placing the slides in 1 L of citrate buffer (pH 6) and microwaving at high power for 20 minutes. After cooling for 15 minutes, sections were incubated with 10% normal goat serum for 30 minutes to block non-specific binding Primary antibody (mouse monoclonal IgG, clone MIB-1, Dako) at 1/50 dilution was added and incubated for 1 hour at room temperature. Sections were washed and incubated with biotinylated secondary IgG antibody (1/200 dilution; Vector Labs Inc.), for 45 minutes at room temperature. Subsequently, slides were washed and incubated with ABC Elite reagents (Vector Labs Inc.), for 30 minutes at room temperature. […] Sections were counterstained with thionine, dehydrated and mounted.

DSS-induced colitis = DSS-induced colitis in BDF-1 mice; format: in vivo, mouse
Protocol: To evaluate the efficacy of plecanatide in DSS induced colitis model, 48 BDF-1 mice were divided into 8 treatment groups (6 mice/group). One group was not exposed to DSS (untreated control) and groups 2-8 were treated with 5% DSS in the drinking water on day 0. Plecanatide or SP-333 solutions formulated in 0.1M phosphate buffer (pH 7) was administered by oral gavage, once a day at 0.005, 0.05, 0.5, 2.5 and 5 mg/kg, from study day −1 (i.e. prior to initiation of DSS treatment) through day 6 for SP-333 or day 7 for plecanatide. DSS treatment was initiated on day 0 for groups 2-8 until the end of the study. Sulfasalazine (80 mg/kg) or 5-ASA (100 mg/kg) was used as positive control and was administered daily. Mice were sacrificed on day 7. The large intestine was removed and weighed. Distal section of the large intestine was collected and fixed as described above.
Disease activity index (DAI) was calculated by scoring in-life parameters starting from day −1 until the end of the study. Once daily, all mice were weighed and assessed for stool consistency, and the presence of overt blood in the stool or around the anus essentially similar to that reported earlier. Colitis severity was assessed by histopathological analyses of H&E stained tissue sections (Hegazi et al., 2005; Dave et al., 2009) employing the following criteria: (score 0) normal appearing crypts; (score 1) abnormal crypt pathology without ulceration; (score 2) depleted crypts with ulceration; (score 3) 20-50% depleted crypts and increased ulceration; (score 4) >50% depleted crypts with substantial ulceration and (score 5) totally ulcerated/inflamed colon with no crypts remaining. All slides were scored in a blinded manner. Colitis severity in TCRα−/− model was scored as previously described^25. All slides were scored in a blinded manner. Disease activity index (DAI) was calculated by assessing body weight, stool consistency, and the presence of overt blood in stools or around the anus, essentially similar to that reported earlier (Hamamoto et al., 1999).

NF-κB [3] = experiment: Inhibition of NF-κB signaling in LPS-stimulated T84 cells, Western blot; format: cell-based, human
Protocol: Approximately 1.5×10^6 T84 cells were seeded into 100 mm dishes and cultured essentially as described (Shailubhai et al. 2000). At 85-90% confluence, cells were washed and treated with 10 μg/ml lipopolysaccharides (LPS) from Escherichia coli (Sigma-Aldrich, St. Louis, Mo.) for 4 h. Subsequent to LPS treatment, cells were washed and replenished with fresh media containing 8-Bromo-cyclic GMP (8-Br-cGMP) at 0, 0.1, 1, 10, 100 and 1000 μM (Enzo Life Science, Farmingdale, N.Y.), or SP-333 at 0, 0.01, 0.1, 1 and 10 μM together with 500 μM of phosphodiesterase inhibitor Zaprinast (Sigma-Aldrich, St. Louis, Mo.) for 16 h before harvest. For analyzing phosphorylation status of IKK-α/β, T84 cells were stimulated with LPS (10 μg/ml) for 4 h followed by treatment with 0.1 and 1.0 μM of SP-333 in the presence of 500 μM Zaprinast, for 2 h. The control cells (without LPS treatment) were washed and refilled with fresh media and harvested simultaneously with treated cells. Nuclear and cytosolic extracts were prepared by the previously described method (Aiamkitsumrit et al. 2007). Protein concentration was measured with a Bio-Rad protein assay kit (Bio-Rad, Hercules, Calif.). The extracts were stored at −80° C. until use.
T84 cells at 85-90% confluence were washed and treated with 10 μg/ml Escherichia coli LPS (Sigma-Aldrich, St. Louis, Mo.) for 4 h.
Western Blot analysis: This was performed essentially as described^21 employing either 50 μg of cytoplasmic or 25 μg proteins of the nuclear fractions. The blots were probed overnight with primary antibodies of interest (anti-p65 antibody, 1:200 dilution; anti-IκB antibody 1:500 dilution; anti-phosphorylated p65 antibody, 1:250 dilution; anti-phosphorylated IκB antibody 1:250 dilution; all were from Santa Cruz Biotechnology (Santa Cruz, Calif.). Anti-IKK-β and phosphorylated IKK-α/β (Ser 176/180) were purchased from Cell Signaling Technology, Boston, Mass. and used at 1:500 dilution; anti-mouse or anti-rabbit antibodies conjugated to […] were used for chemiluminescence detection as recommended by manufacturer (GE Healthcare, Piscataway, N.J.).

Src = experiment: Activation of Src and GCRA-mediated cGMP production by T84 cells (FIG. 13); format: cell-based, human; settings: activation of Src
NF-κB [4] = experiment: Inhibition of NF-κB signaling in LPS-stimulated T84 cells, Western blot; format: cell-based, human; settings: zaprinast 500 μM alone
[5] = format: in vitro ADME
Protocol: The potency of test peptides to stimulate cGMP synthesis in T84 cells was assayed by a published procedure (Shailubhai et al. 2000). Briefly, confluent monolayers of T-84 cells in 24-well plates were washed twice with 250 μl of DMEM containing 50 mM HEPES (pH 7.4), pre-incubated at 37° C. for 10 min with 250 μl of DMEM containing 50 mM HEPES (pH 7.4) and 1 mM isobutylmethylxanthine (IBMX), followed by incubation with test peptide for 30 min. The medium was aspirated, and the reaction was terminated by the addition of 3% perchloric acid. Following centrifugation, and neutralization with 0.1 N NaOH, the resulting supernatant was used directly for measurements of intracellular cGMP using an ELISA kit (Caymen Chemical, Ann Arbor, Mich.). Results are expressed as pmol of cGMP/mg of protein in the cell extracts.
Plecanatide and SP-333 were incubated in simulated intestinal fluid (SIF) for 6-24 h. Inactivated SIF was used as a control. Following the treatment, samples were analyzed by HPLC by cGMP production in T84 cells. […] The active metabolite, SP-338 was characterized by MS and MS/MS and identified to be formed via removal of carboxyl terminal leucine possibly due to cleavage by carboxypeptidases.

[6] = target: guanylate cyclase C (GC-C) receptor (human, UniProt P25092 24-1073); experiment: cell-based or functional assay
[7] = 5-ASA 100 mg/kg, vs DSS alone or DSS plus vehicle

Chain of guanylate cyclase C (GC-C) receptor (P25092 24-1073): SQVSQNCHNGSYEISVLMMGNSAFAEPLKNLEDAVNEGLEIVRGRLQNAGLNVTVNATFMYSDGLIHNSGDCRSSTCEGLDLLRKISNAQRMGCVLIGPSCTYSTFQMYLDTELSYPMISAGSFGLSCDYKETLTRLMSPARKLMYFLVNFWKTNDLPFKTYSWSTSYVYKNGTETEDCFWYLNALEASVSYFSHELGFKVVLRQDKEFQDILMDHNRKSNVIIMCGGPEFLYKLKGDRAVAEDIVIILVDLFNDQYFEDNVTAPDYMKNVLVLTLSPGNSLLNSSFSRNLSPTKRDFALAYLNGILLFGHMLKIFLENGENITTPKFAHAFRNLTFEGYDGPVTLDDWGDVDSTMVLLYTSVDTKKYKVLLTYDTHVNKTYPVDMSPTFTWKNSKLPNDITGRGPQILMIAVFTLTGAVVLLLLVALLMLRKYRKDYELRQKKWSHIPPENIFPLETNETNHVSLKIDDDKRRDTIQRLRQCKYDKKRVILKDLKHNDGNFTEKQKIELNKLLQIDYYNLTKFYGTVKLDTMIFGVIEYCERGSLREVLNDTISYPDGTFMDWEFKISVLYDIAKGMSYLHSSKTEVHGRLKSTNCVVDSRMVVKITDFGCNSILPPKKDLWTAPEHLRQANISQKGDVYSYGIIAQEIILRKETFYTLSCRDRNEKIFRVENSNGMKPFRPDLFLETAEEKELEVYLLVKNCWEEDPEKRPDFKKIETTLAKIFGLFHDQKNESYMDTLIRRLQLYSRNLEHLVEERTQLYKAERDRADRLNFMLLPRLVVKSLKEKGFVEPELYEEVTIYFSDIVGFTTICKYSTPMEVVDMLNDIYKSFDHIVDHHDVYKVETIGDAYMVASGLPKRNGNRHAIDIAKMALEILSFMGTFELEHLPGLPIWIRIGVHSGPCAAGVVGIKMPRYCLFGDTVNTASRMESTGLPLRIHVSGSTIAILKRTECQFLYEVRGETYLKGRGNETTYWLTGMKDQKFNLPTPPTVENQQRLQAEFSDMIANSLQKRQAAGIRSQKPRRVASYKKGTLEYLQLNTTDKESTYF

For `Nc1ccc(O)c(C(=O)O)c1` [5-ASA, 5-aminosalicylic acid, reference compound], the “MPO activity compared to DSS treated animals” value [1] was “considerably reduced”, the “initial MPO activity” value ([1]; p=0.010) was 0.029±0.004 units/minute and the “proportion of Ki-67 positive crypts” value [2] was 53.5±12.33%. For the same molecule, the “histological evaluation of colon tissues (crypts)” value (DSS-induced colitis; 5-ASA 100 mg/kg) was “only patchy loss of crypts”, the “mean DAI scores” value (DSS-induced colitis; [7]) was “lower” and the “mean scores of colitis severity” value (DSS-induced colitis; [7]) was “lower”. It also gave a histopathology score (DSS-induced colitis; DSS+5-ASA 100 mg/kg, representative image FIG. 10F) of 2.

For `Nc1nc2c(nc(Br)n2[C@@H]2O[C@@H]3COP(=O)(O)O[C@H]3[C@H]2O)c(=O)[nH]1` [8-Br-cGMP, 8-Bromo-cyclic GMP, reference compound], the “levels of phospho-p65” value (NF-κB [3]; LPS 10 μg/ml 4 h, then 8-Br-cGMP (1 mM) 16 h, zaprinast 500 μM) was “reduced levels of phospho-p65 in a dose-dependent manner”.

For `[Cl][Hg][Cl]` [HgCl2], the “GCRA-mediated cGMP production by T84 cells” value (Src) was “inhibited”.

With `CCCOc1ccccc1-c1nc2nn[nH]c2c(=O)[nH]1` [zaprinast, reference compound] the NF-κB activation (NF-κB [3]; zaprinast 500 μM alone, T84 cells) was “did not inhibit NF-κB activation” and the cGMP levels (NF-κB [4]) was “did not increase cGMP levels”.

For “Asn^1-Asp^2-Glu^3-Cys^4-Glu^5-Leu^6-Cys^7-Val^8-Asn^9-Val^10-Ala^11-Cys^12-Thr^13-Gly^14-Cys^15 (NDECELCVNVACTGC) [SP-338]”, the “biological activity of the major metabolite of plecanatide in SIF” value [5] was “appears to retain biological activity”.

For [dN]DECELCVNVACTGC[dL] (disulfide 4-12, 7-15) [SP-333], the “cGMP accumulation in T84 cells (EC50)” value [6] was 283 nM and the “cGMP synthesis in T84 cells (EC50)” value [6] was 283 nM.

In the case of NDECELCVNVACTGCL (disulfide 4-12, 7-15) [Plecanatide (SP-304)], the “cGMP accumulation in T84 cells (EC50)” value [6] is reported as 189 nM.
